According to US8058306B2, “Phenyl pyrrole aminoguanidine derivatives” (Action Pharma A/S, priority 2006, dated 2011):
“And” between values parts separate entries of the source, which are not always exact repeats. Identical values can stand only once. “Also recorded” adds a separate entry of the source. Like-named read-outs stand apart in the source and are kept apart here.

Experiment: Plasma kinetics in rat following intravenous and oral administration;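 as to AUC0-∞: parameter is AUC from zero to infinity in ng·h/mL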
Format: in vivo, Sprague Dawley rats
Settings: for t1/2: Table XIV; for concentration at 0.05 h / concentration at 0.1 h / concentration at 0.25 h / concentration at 0.75 h / concentration at 1.5 h / concentration at 2.5 h / concentration at 4 h / concentration at 6 h / concentration at 8 h / concentration at 24 h: single intravenous 10 mg/kg
Protocol: This study determined the intravenous pharmacokinetics and oral bioavailability of compound 1 of the invention (see FIG. 1A, structure no. 1), compound 2 of the invention (see FIG. 1D, structure no. 19) and compound 3 of the invention (see FIG. 1I, structure no. 53) following administration to Sprague Dawley rats at a dose level of 10 mg/kg.
Six groups of 3 male rats received either a single intravenous or single oral administration of compound 1, 2 or 3 of the invention at a dose level of 10 mg/kg. Blood samples were obtained at various times after dosing. Plasma samples were analysed for unchanged test item using a suitable LC-MS/MS method. Pharmacokinetic parameters were estimated from individual plasma concentrations.
Eighteen male rats each received either a single intravenous or a single oral administration of either compound 1, 2 or 3 at a dose level of 10 mg/kg. The formulation was orally administered to each animal by gastric gavage and intravenously administered to each animal via a tail vein. The dose was administered at a dose volume of 5 mL/kg. The formulations were administered to each animal according to the details in the following table:
Blood samples (ca 0.3 mL) were removed from the femoral vein of each animal into tubes containing lithium heparin as anticoagulant.
Blood samples were collected from 3 rats at the following times after dose administration: • 3, 6, 15, 45 min and 1.5, 2.5, 4, 6, 8, 24 h post dose. Oral Administration
Blood samples were collected from 3 rats at the following times after dose administration: • 5, 15, 45 min and 1.5, 2.5, 4, 6, 8, 24 h post dose. Processing of Blood Samples
Pharmacokinetic parameters of compound 1, 2 and 3 were derived by non-compartmental analysis using WinNonLin Pro version 5.0.1 (Pharsight 2005). The following parameters were derived, where appropriate, from the individual plasma concentration versus time profiles:
• F % The absolute oral bioavailability calculated as [AUC0-t (oral)*Dose(iv)/AUC0-t (iv)*Dose (oral)]*100 based on mean values derived after oral and intravenous administration Consideration was given to the estimation of λz and corresponding t1/2 values. Three or more points are required within the terminal phase for λz and t1/2 to be estimated. The following additional variables were tabulated to aid identification of potentially unreliable estimates of t1/2 and AUC:
Pharmacokinetic parameters were reported as geometric mean except Tmax which was reported as the median. Geometric coefficient of variation was calculated as: […]
Actual sampling times were used for all calculations of pharmacokinetic parameters. Plasma concentrations that were below the limit of quantification were taken as zero for the pharmacokinetic analysis.

[1] = intravenous 10 mg/kg, male rats, individual animals, acetate, 10 mg/kg
[2] = male, Sprague Dawley, rat, plasma, iv, 10 mg/kg, male rats, individual animals, read-out: Sample Concentration in plasma
[3] = male, Sprague Dawley, rat, plasma, iv, 10 mg/kg, male rats, mean of 3, read-out: Mean Concentration in plasma
[4] = male, Sprague Dawley, rat, plasma, iv, 10 mg/kg, male rats, individual animals, LLOQ 2.50, read-out: Sample Concentration in plasma
[5] = male, Sprague Dawley, rat, plasma, iv, 10 mg/kg, male rats, mean, read-out: Mean Concentration in plasma

bioavailability (Sprague Dawley, rat, plasma, 10 mg/kg oral vs intravenous, male rats, from mean AUC0-t, read-out: Mean absolute oral bioavailability): 20.6%
t1/2 (intravenous 10 mg/kg, male rats, Arithmetic Mean): 3.15 h
t1/2 (intravenous 10 mg/kg, male rats, Geometric mean): 3.14 h
t1/2 (intravenous 10 mg/kg, male rats, Median): 3.26 h
t1/2 [1]: 3.26 h and 3.46 h and 2.74 h
Between-animal variability in systemic exposure, coefficient of variation (CV) of AUC0-t (intravenous 10 mg/kg, male rats): less than 30%
AUC0-∞ [1]: 1911 ng·h/mL and 2504 ng·h/mL
AUC(0-t) [1]: 1896 ng·h/mL and 2258 ng·h/mL
C0 [1]: 9463 ng/mL and 4924 ng/mL
CL [1]: 90.3 mL/min/kg and 68.25 mL/min/kg
MRT [1]: 2.53 h
Vss [1]: 13.694 L/kg and 13.225 L/kg
Systemic clearance (in words) (intravenous 10 mg/kg, rats): high
systemic plasma clearance (CL) compared with hepatic blood flow (in words) (intravenous 10 mg/kg, hepatic blood flow 3312 mL/h/kg): greater than hepatic blood flow
AUC(0-inf) (male, Sprague Dawley, rat, plasma, iv, 10 mg/kg, intravenous 10 mg/kg, male rats, Arithmetic Mean): 2500 ng·h/mL
AUC(0-t) (male, Sprague Dawley, rat, plasma, iv, 10 mg/kg, intravenous 10 mg/kg, male rats, Arithmetic Mean, read-out: AUC0-t): 2410 ng·h/mL
C0 (male, Sprague Dawley, rat, plasma, iv, 10 mg/kg, intravenous 10 mg/kg, male rats, Arithmetic Mean, read-out: C0): 6630 ng/mL
clearance (male, Sprague Dawley, rat, plasma, iv, 10 mg/kg, intravenous 10 mg/kg, male rats, Arithmetic Mean, read-out: CL (converted)): 71.3 mL/min/kg
MRT (male, Sprague Dawley, rat, plasma, iv, 10 mg/kg, intravenous 10 mg/kg, male rats, Arithmetic Mean, read-out: MRT): 3.24 h
Vd (male, Sprague Dawley, rat, plasma, iv, 10 mg/kg, intravenous 10 mg/kg, male rats, Arithmetic Mean, read-out: Vss): 13.4 L/kg
AUC(0-inf) (male, Sprague Dawley, rat, plasma, iv, 10 mg/kg, intravenous 10 mg/kg, male rats, Geometric mean): 2460 ng·h/mL
AUC(0-t) (male, Sprague Dawley, rat, plasma, iv, 10 mg/kg, intravenous 10 mg/kg, male rats, Geometric mean, read-out: AUC0-t): 2360 ng·h/mL
C0 (male, Sprague Dawley, rat, plasma, iv, 10 mg/kg, intravenous 10 mg/kg, male rats, Geometric mean, read-out: C0): 6360 ng/mL
clearance (male, Sprague Dawley, rat, plasma, iv, 10 mg/kg, intravenous 10 mg/kg, male rats, Geometric mean, read-out: CL (systemic plasma clearance) (converted)): 69.9 mL/min/kg
MRT (male, Sprague Dawley, rat, plasma, iv, 10 mg/kg, intravenous 10 mg/kg, male rats, Geometric mean, read-out: MRT): 3.19 h
Vd (male, Sprague Dawley, rat, plasma, iv, 10 mg/kg, intravenous 10 mg/kg, male rats, Geometric mean, read-out: Vss (mean apparent volume of distribution)): 13.4 L/kg
half-life (male, Sprague Dawley, rat, plasma, iv, 10 mg/kg, intravenous 10 mg/kg, male rats, Geometric mean, read-out: t1/2 (mean apparent terminal half-life) (converted)): 3.14 h
AUC(0-inf) (male, Sprague Dawley, rat, plasma, iv, 10 mg/kg, intravenous 10 mg/kg, male rats, Median): 2500 ng·h/mL
AUC(0-t) (male, Sprague Dawley, rat, plasma, iv, 10 mg/kg, intravenous 10 mg/kg, male rats, Median, read-out: AUC0-t): 2260 ng·h/mL
C0 (male, Sprague Dawley, rat, plasma, iv, 10 mg/kg, intravenous 10 mg/kg, male rats, Median, read-out: C0): 5520 ng/mL
clearance (male, Sprague Dawley, rat, plasma, iv, 10 mg/kg, intravenous 10 mg/kg, male rats, Median, read-out: CL (converted)): 68.2 mL/min/kg
MRT (male, Sprague Dawley, rat, plasma, iv, 10 mg/kg, intravenous 10 mg/kg, male rats, Median, read-out: MRT): 3.23 h
Vd (male, Sprague Dawley, rat, plasma, iv, 10 mg/kg, intravenous 10 mg/kg, male rats, Median, read-out: Vss): 13.2 L/kg
AUC(0-inf) (male, Sprague Dawley, rat, plasma, iv, 10 mg/kg, intravenous 10 mg/kg, male rats, individual animals): 3090 ng·h/mL
AUC(0-t) (male, Sprague Dawley, rat, plasma, iv, 10 mg/kg, intravenous 10 mg/kg, male rats, individual animals, read-out: AUC0-t): 3080 ng·h/mL
C0 (male, Sprague Dawley, rat, plasma, iv, 10 mg/kg, intravenous 10 mg/kg, male rats, individual animals, read-out: C0): 5520 ng/mL
clearance (male, Sprague Dawley, rat, plasma, iv, 10 mg/kg, intravenous 10 mg/kg, male rats, individual animals, read-out: CL (converted)): 55.4 mL/min/kg
MRT (male, Sprague Dawley, rat, plasma, iv, 10 mg/kg, intravenous 10 mg/kg, male rats, individual animals, read-out: MRT): 3.96 h
Vd (male, Sprague Dawley, rat, plasma, iv, 10 mg/kg, intravenous 10 mg/kg, male rats, individual animals, read-out: Vss): 13.2 L/kg
concentration at 0.05 h (male, Sprague Dawley, rat, plasma, iv, 10 mg/kg, male rats, 0.05 h (3 min), mean of 3, read-out: Mean Concentration in plasma): 3170 ng/mL
concentration at 0.05 h (male, Sprague Dawley, rat, plasma, iv, 10 mg/kg, male rats, 0.05 h, individual animals, read-out: Sample Concentration in plasma): 2530 ng/mL
concentration at 0.1 h [2]: 978 ng/mL
concentration at 0.1 h [3]: 1100 ng/mL
concentration at 0.25 h [2]: 481 ng/mL
concentration at 0.25 h [3]: 780 ng/mL
concentration at 0.75 h [2]: 404 ng/mL
concentration at 0.75 h [3]: 465 ng/mL
concentration at 1.5 h [2]: 274 ng/mL
concentration at 1.5 h [3]: 335 ng/mL
concentration at 2.5 h [2]: 240 ng/mL
concentration at 2.5 h [3]: 251 ng/mL
concentration at 4 h [2]: 179 ng/mL
concentration at 4 h [3]: 192 ng/mL
concentration at 6 h [2]: 103 ng/mL
concentration at 6 h [3]: 119 ng/mL
concentration at 8 h [4]: 62.3 ng/mL
concentration at 8 h [5]: 81.2 ng/mL
concentration at 24 h [4]: 3.08 ng/mL
concentration at 24 h [5]: 2.82 ng/mL
AUC(0-inf) (male, Sprague Dawley, rat, plasma, po, 10 mg/kg, oral 10 mg/kg, male rats, Arithmetic Mean): 838 ng·h/mL
AUC(0-t) (male, Sprague Dawley, rat, plasma, po, 10 mg/kg, oral 10 mg/kg, male rats, Arithmetic Mean, read-out: AUC0-t): 518 ng·h/mL
Cmax (male, Sprague Dawley, rat, plasma, po, 10 mg/kg, oral 10 mg/kg, male rats, Arithmetic Mean, read-out: Cmax): 110 ng/mL
MRT (male, Sprague Dawley, rat, plasma, po, 10 mg/kg, oral 10 mg/kg, male rats, Arithmetic Mean, read-out: MRT): 6.83 h
half-life (male, Sprague Dawley, rat, plasma, po, 10 mg/kg, oral 10 mg/kg, male rats, Arithmetic Mean, read-out: t1/2 (converted)): 3.3 h
Tmax (male, Sprague Dawley, rat, plasma, po, 10 mg/kg, oral 10 mg/kg, male rats, Arithmetic Mean, read-out: tmax): 4.67 h
Compound: N=C(N)NN=CC=Cc1cccn1-c1ccccc1Br [Compound 3, [1-(2-bromophenyl)-1H-pyrrol-2-yl-allylideneamino]guanidinium acetate]
volume of distribution compared with total body water (in words) (intravenous 10 mg/kg, rats, total body water 668 mL/kg, acetate, 10 mg/kg): exceeded the total body water; also recorded: markedly greater than that of the total body water
